For data set [1] the following is noted: 293.15 K; 101.33 kPa; Liquid; Vibrating tube method.
A short description of data set [2]: refractive index (Na D-line) (dimensionless). The conditions noted are these: 293.15 K; 101.33 kPa; Liquid; Standard Abbe refractometry.

± gives the expanded uncertainty stated by the source.

Among the data in the NIST ThermoML archive (doi:10.1021/je300683r) are mass density and refractive index values, retold here.

As to `CC(C)CO` [2-methyl-1-propanol], the mass density (usually mass per unit of volume) in data set [1] was 802 ± 1 kg/m3. In data set [2], the refractive index (in general, a measure of how strongly the sample bends light) is 1.3955 ± 0.0008.

Turning to `CC(C)CCO` [3-methylbutan-1-ol], the mass density in data set [1] is recorded as 810.2 ± 1.1 kg/m3. Besides, the refractive index in data set [2] was found to be 1.413 ± 0.0008.

Take `CCO` [ethanol]: the mass density in data set [1] was 790 ± 1 kg/m3. Further, the refractive index in data set [2] came out at 1.3616 ± 0.0012.

As to `O` [water], the mass density in data set [1] was 998.4 ± 1 kg/m3. Also, the refractive index in data set [2] is given as 1.3328 ± 0.0007.
